Source: PMC5007466, “VCP recruitment to mitochondria causes mitophagy impairment and neurodegeneration in models of Huntington's disease” (Nature Communications, 2016)

Assays:
[1] = system: HD patient-iPS cell derived neurons; assay: LDH release after BDNF withdrawal; format: cell-based, human; conditions: 1 μM per day for 5 days, BDNF withdrawal 24 h
Protocol: Figure 4 HV-3 treatment reduces mitochondrial damage and cell death in HD cell cultures. Mouse HdhQ7 and HdhQ111 striatal cells were treated with control peptide TAT or peptide HV-3 (3 uM/day for 3 days). (a) Left panel: Mitochondrial membrane potential (MMP) was determined by TMRM fluorescent dye. Right panel: HdhQ111 cells were transfected with control siRNA (siCon) and VCP siRNA (siVCP) for three days. The MMP was determined by TMRM in HdhQ111 cells treated with TAT or HV-3. (b) Mitochondrial morphology was determined by staining cells with anti-Tom20 antibody. Scale bar: 10 μm. The percentage of cells with fragmented mitochondria relative to the total number of cells was quantitated. At least 100 cells per group were counted. (c) Mitochondrial morphology was determined by EM. The length of mitochondria and the number of mitophagosomes were quantitated. At least 90 mitochondria per group were counted. […] HMGB1 release into culture medium was determined by IB analysis with anti-HMGB1 antibody. […] Cell death was determined by the release of LDH. […] (g) Quantitation of neurite length of medium spiny neurons. At least 50 neurons per group were counted by an observer blind to experimental conditions. (h) Left: the MMP was determined by TMRM fluorescent dye. […] Mitochondrial length along neurites of DARPP32/Tuj1-positive neurons was quantitated. […]

[2] = system: wild-type mouse striatal cells; assay: GFP-LC3B association with mitochondria in cells expressing Flag-VCP; format: cell-based; conditions: wt striatal cells, 36 h
Protocol: Figure 5 Treatment of HV-3 reduces excessive mitophagy in HD cell cultures and HD mouse brains. (a) HdhQ7 and HdhQ111 cells were treated with control siRNA (con) or VCP siRNA (siVCP) for 48 h. Mitochondria were isolated and LC3 mitochondrial levels were determined by WB. Representative blots are from three independent experiments. The quantitation of LC3 II levels on mitochondria is provided on the right. VADC was used as a loading control. (b) Flag-VCP and GFP-LC3B were co-transfected into wild-type striatal cells. Mitochondria were isolated after 36 h of transfection. The GFP-LC3B levels on mitochondria were examined by WB. VDAC was used as a loading control. Representative blots are from three independent experiments. Histogram: quantitation of GFP-LC3B mitochondrial protein level. HdhQ7 and HdhQ111 cells were treated with control peptide TAT or peptide HV-3 (3 uM/day for 3 days). (c) HdhQ111 cells were transfected with GFP-LC3B for 24 h. The number of GFP-LC3B puncta was quantitated and shown in the histogram. […] (d) Enzyme activity of lysosomal Cathepsin B was measured using a Cathepsin B assay kit. […] (e) Mitochondrial mass was measured by the fluorescent density of Mitotracker green. […] Histogram: the number of mitophagosomes per 100 μm^2 was counted and quantitated. Fifteen random areas in the striatum of each animal were analyzed. […]
Protein concentrations were determined by Bradford assay. […]

CSCC[C@H](NC(=O)[C@@H](NC(=O)[C@H](CC(C)C)NC(=O)[C@@H](NC(=O)[C@H](Cc1c[nH]cn1)NC(=O)CCCCCNC(=O)[C@H](CCCNC(=N)N)NC(=O)[C@H](CCCNC(=N)N)NC(=O)[C@H](CCCNC(=N)N)NC(=O)[C@H](CCC(N)=O)NC(=O)[C@H](CCCNC(=N)N)NC(=O)[C@H](CCCNC(=N)N)NC(=O)[C@H](CCCCN)NC(=O)[C@H](CCCCN)NC(=O)[C@H](CCCNC(=N)N)NC(=O)CNC(=O)[C@@H](N)Cc1ccc(O)cc1)C(C)C)C(C)C)C(=O)N[C@@H](CS)C(=O)N[C@@H](C)C(=O)N[C@H](C(N)=O)[C@@H](C)O [HV-3]
neuronal cell death [1]: suppressed neuronal cell death
GFP-LC3B association with mitochondria [2]: could be inhibited by treatment with HV-3
